Data taken from ChEMBL document CHEMBL1287689, “Sulfonamide derivatives of styrylheterocycles as a potent inhibitor of COX-2-mediated prostaglandin E2 production” (Bioorg Med Chem Lett, 2010).
The source made the active and inactive calls. The calls are words filed in the database; no cut-off is given here.

What was measured:
[1] = molecular target: T1, Prostaglandin G/H synthase 2 (Mus musculus, UniProt Q05769); assay: Inhibition of COX-2 mediated PGE2 production in LPS-induced mouse RAW264.7 cells; format: cell-based
T1 sequence (Q05769 whole entry): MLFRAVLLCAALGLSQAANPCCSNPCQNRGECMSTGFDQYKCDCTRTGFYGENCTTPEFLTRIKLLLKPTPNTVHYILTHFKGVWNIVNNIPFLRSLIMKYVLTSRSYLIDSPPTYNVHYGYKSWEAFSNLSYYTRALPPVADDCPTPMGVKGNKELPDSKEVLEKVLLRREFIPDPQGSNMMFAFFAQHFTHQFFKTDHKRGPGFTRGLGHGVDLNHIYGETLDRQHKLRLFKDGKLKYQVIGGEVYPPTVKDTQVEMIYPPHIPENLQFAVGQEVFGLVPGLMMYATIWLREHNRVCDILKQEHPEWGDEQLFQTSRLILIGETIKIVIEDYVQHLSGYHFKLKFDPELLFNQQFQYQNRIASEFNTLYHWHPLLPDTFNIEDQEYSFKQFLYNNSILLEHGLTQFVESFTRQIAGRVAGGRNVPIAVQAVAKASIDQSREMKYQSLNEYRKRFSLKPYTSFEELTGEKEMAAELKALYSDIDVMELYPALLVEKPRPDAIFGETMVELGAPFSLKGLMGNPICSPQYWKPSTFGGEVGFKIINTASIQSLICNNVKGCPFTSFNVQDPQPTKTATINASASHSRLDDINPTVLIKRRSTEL

RAW264.7 = assay: Inhibition of COX-2 gene expression in LPS-stimulated mouse RAW264.7 cells after 24 hrs by RT-PCR analysis; format: functional, cell-based

| Structure (SMILES) | IC50 [1] | inhibition (RAW264.7) |
| --- | --- | --- |
| CS(=O)(=O)c1ccc(/C=C/c2ccsc2)cc1 | 520 nM | – |
| NS(=O)(=O)c1ccc(/C=C/c2ccco2)cc1 | 18300 nM | – |
| NS(=O)(=O)c1ccc(/C=C/c2ccsc2)cc1 | 440 nM | – |
| NS(=O)(=O)c1ccc(/C=C/c2cccs2)cc1 | 13 nM | Active |
| NS(=O)(=O)c1ccc(/C=C/c2ccoc2)cc1 | > 50000 nM | – |
| CS(=O)(=O)c1ccc(/C=C/c2cccs2)cc1 | 380 nM | – |
| CS(=O)(=O)c1ccc(/C=C/c2ccoc2)cc1 | > 50000 nM | – |
| CS(=O)(=O)c1ccc(/C=C/c2ccco2)cc1 | 1180 nM | – |
